# Assays:
# hCPT2 = target: T1, hCPT2 (Homo sapiens, UniProt P23786); assay: CPT2 inhibition, spectrophotometric DTNB (Ellman's reagent) assay; format: biochemical; settings: human CPT2 expressed in P. pastoris, cell extract; carnitine 500 μM, palmitoyl-CoA 80 μM, DTNB 300 μM
# T1 construct: made in house; host or cells: Pichia pastoris strain X-33
# T1 sequence (P23786 26-658): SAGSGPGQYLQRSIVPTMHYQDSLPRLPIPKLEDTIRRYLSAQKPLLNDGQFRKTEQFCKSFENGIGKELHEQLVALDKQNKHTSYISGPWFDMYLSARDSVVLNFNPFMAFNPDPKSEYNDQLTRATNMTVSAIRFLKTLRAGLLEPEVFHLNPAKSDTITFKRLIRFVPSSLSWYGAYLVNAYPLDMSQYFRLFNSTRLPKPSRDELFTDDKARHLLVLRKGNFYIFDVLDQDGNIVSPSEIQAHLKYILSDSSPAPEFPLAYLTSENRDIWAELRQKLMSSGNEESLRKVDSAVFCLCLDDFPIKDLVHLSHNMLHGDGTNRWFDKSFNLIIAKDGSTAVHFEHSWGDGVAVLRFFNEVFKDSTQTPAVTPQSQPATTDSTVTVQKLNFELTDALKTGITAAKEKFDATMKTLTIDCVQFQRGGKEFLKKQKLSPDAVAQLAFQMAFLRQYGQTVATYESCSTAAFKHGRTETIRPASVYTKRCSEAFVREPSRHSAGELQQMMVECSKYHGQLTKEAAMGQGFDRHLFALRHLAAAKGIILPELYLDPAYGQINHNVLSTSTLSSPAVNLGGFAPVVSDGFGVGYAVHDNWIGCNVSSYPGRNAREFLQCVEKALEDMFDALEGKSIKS
# Description: (§1) The following tests were carried out in order to determine the activity of the compounds of the present invention. Background information on the performed assays can be found in: Jackson et al., 1999, Biochem. J. 341, 483-489 and Jackson et al., 2000, J. Biol. Chem. 275, 19560-19566.
# (§2) Human and rat CPT2- and liver CPT1 cDNAs, and human muscle CPT1 cDNA were subcloned in pGAPZB or pGAPZA, respectively. These plasmids were used to transform P. pastoris strain X-33 via electroporation after the preparation of electrocompetent cells. High copy number clones were selected where necessary using 0.5 or 1 mg/ml Zeocin. Cultures for activity measurements were induced for 16 h in YPD medium (1% yeast extract, 2% peptone, 2% glucose). Crude cell extracts were prepared by disrupting the cells with glass beads or French Press, depending on fermenter sizes. After centrifugation, the cell-free extracts were resuspended in cell breaking buffer (50 mM Tris, pH7.4, 100 mM KCl, 1 mM EDTA) in the presence of a protease inhibitor cocktail, before aliquoting and freezing at −20° C.
# (§3) CPT activity was measured using a spectrophotometric assay using 5,5′-dithio-bis-(2-nitrobenzoic acid) (DTNB) also called Ellman's reagent. The HS-CoA released on the formation of acylcarnitine from carnitine (500 μM) and palmitoyl-CoA (80 μM) reduced DTNB (300 μM) forming 5-mercapto-2-nitrobenzoic acid which absorbed at 410 nm with a molar extinction coefficient of 13600 M^−1cm^−1. The assay buffer contained 120 mM KCl, 25 mM Tris, pH 7.4, 1 mM EDTA. This assay was used for the identification of CPT inhibitors, particularly/preferentially CPT2-selective inhibitors, versus the liver and muscle CPT1 isoforms.
# hL-CPT1 = target: T2, hL-CPT1 (Homo sapiens, UniProt P50416); assay: liver CPT1 inhibition, spectrophotometric DTNB (Ellman's reagent) assay; format: biochemical; settings: human liver CPT1 expressed in P. pastoris, cell extract; carnitine 500 μM, palmitoyl-CoA 80 μM, DTNB 300 μM
# T2 construct: made in house; host or cells: Pichia pastoris strain X-33
# T2 sequence (P50416 1-773): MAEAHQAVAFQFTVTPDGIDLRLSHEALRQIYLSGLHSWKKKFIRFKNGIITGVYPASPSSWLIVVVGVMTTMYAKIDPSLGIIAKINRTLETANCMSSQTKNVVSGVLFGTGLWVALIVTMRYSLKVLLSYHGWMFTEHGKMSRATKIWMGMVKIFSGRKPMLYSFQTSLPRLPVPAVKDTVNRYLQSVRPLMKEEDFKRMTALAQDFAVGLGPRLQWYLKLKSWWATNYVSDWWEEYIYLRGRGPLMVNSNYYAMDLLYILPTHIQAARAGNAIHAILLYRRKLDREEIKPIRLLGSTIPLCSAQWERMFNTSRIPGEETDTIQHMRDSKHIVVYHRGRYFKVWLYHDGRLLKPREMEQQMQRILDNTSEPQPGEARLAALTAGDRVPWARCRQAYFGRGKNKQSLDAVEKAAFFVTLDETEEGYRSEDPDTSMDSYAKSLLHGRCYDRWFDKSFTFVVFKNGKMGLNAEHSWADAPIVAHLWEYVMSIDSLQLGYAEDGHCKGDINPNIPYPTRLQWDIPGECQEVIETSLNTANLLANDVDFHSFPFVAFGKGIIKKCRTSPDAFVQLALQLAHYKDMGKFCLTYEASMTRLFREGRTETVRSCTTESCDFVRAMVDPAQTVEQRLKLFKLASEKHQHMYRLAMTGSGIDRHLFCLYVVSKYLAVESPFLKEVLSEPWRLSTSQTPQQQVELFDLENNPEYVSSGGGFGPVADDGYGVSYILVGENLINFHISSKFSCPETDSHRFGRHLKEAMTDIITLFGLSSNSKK
# Description: as §1, §2, §3
Compound,IC50 (hCPT2),IC50 (hL-CPT1)
"CN(C)C[C@@H](CC(=O)O)NC(=O)CCCCCCCCOc1ccccc1F [Example 18, (R)-4-Dimethylamino-3-[9-(2-fluoro-phenoxy)-nonanoylamino]-butyric acid]",452 nM,> 10000 nM
"CN(C)C[C@@H](CC(=O)O)NC(=O)CCCCCCCCOc1ccc(F)cc1F [Example 22, (R)-3-[9-(2,4-Difluoro-phenoxy)-nonanoylamino]-4-dimethylamino-butyric acid]",268 nM,8630 nM
"CN(C)C[C@@H](CC(=O)O)NC(=O)CCCCCCCCOc1ccc(C(F)(F)F)cc1 [Example 27, (R)-4-Dimethylamino-3-[9-(4-trifluoromethyl-phenoxy)-nonanoylamino]-butyric acid]",170 nM,2190 nM
"COc1ccc(OCCCCCCCCC(=O)N[C@H](CC(=O)O)CN(C)C)cc1 [Example 28, (R)-4-Dimethylamino-3-[9-(4-methoxy-phenoxy)-nonanoylamino]-butyric acid]",15 nM,5440 nM
"CN(C)C[C@@H](CC(=O)O)NC(=O)CCCCCCCCOc1ccc(F)c(F)c1F [Example 24, (R)-4-Dimethylamino-3-[9-(2,3,4-trifluoro-phenoxy)-nonanoylamino]-butyric acid]",73 nM,5360 nM
"CN(C)C[C@@H](CC(=O)O)NC(=O)CCCCCCCCOc1ccc(F)c(F)c1 [Example 23, (R)-3-[9-(3,4-Difluoro-phenoxy)-nonanoylamino]-4-dimethylamino-butyric acid]",71 nM,1660 nM
"CN(C)C[C@@H](CC(=O)O)NC(=O)CCCCCCCOCc1ccc(C(F)(F)F)cc1 [Example 6, (R)-4-Dimethylamino-3-[8-(4-trifluoromethyl-benzyloxy)-octanoylamino]-butyric acid]",189 nM,> 10000 nM
"COc1ccc(OCCCCCCCCC(=O)N[C@H](CC(=O)O)CN(C)C)cc1OC [Example 26, (R)-3-[9-(3,4-Dimethoxy-phenoxy)-nonanoylamino]-4-dimethylamino-butyric acid]",400 nM,1150 nM
"CN(C)C[C@@H](CC(=O)O)NC(=O)CCCCCCCOCc1ccc(-c2ccccc2)cc1 [Example 9, (R)-3-[8-(Biphenyl-4-ylmethoxy)-octanoylamino]-4-dimethylamino-butyric acid]",2 nM,5790 nM
"CN(C)C[C@@H](CC(=O)O)NC(=O)CCCCCCCOCc1cccc(F)c1 [Example 14, (R)-4-Dimethylamino-3-[8-(3-fluoro-benzyloxy)-octanoylamino]-butyric acid]",783 nM,> 10000 nM
"CN(C)C[C@@H](CC(=O)O)NC(=O)CCCCCCCOCc1ccc(F)c(F)c1 [Example 1, (R)-3-[8-(3,4-Difluoro-benzyloxy)-octanoylamino]-4-dimethylamino-butyric acid]",910 nM,7770 nM
"CN(C)C[C@@H](CC(=O)O)NC(=O)CCCCCCCCOc1ccc(F)cc1 [Example 20, (R)-4-Dimethylamino-3-[9-(4-fluoro-phenoxy)-nonanoylamino]-butyric acid]",21 nM,1000 nM
"(R)-3-{3-[6-(2,3-Difluoro-benzyloxy)-hexyl]-ureido}-4-dimethylamino-butyric acid [Example 62]",1440 nM,
"CN(C)C[C@@H](CC(=O)O)NC(=O)CCCCCCCCCCOc1ccccc1 [Example 30, (R)-4-Dimethylamino-3-(11-phenoxy-undecanoylamino)-butyric acid]",36 nM,

# More lines, now with the values ahead:
IC50 (hCPT2),IC50 (hL-CPT1),Compound
2100 nM,> 10000 nM,"CN(C)C[C@@H](CC(=O)O)NC(=O)CCCCCCCCCCc1ccccc1 [Example 50, (R)-4-Dimethylamino-3-(11-phenyl-undecanoylamino)-butyric acid]"
1060 nM,> 10000 nM,"CN(C)C[C@@H](CC(=O)O)NC(=O)CCCCCCCCCc1cncs1 [Example 44, (R)-4-Dimethylamino-3-(10-thiazol-5-yl-decanoylamino)-butyric acid]"
17 nM,6910 nM,"COc1ccc(CCCCCCCCCC(=O)N[C@H](CC(=O)O)CN(C)C)cc1 [Example 38, (R)-4-Dimethylamino-3-[10-(4-methoxy-phenyl)-decanoylamino]-butyric acid]"
65 nM,,"CN(C)C[C@@H](CC(=O)O)NC(=O)CCCCCCCOCCCc1ccccc1 [Example 55, (R)-4-Dimethylamino-3-[8-(3-phenyl-propoxy)-octanoylamino]-butyric acid]"
118 nM,7310 nM,"CN(C)C[C@@H](CC(=O)O)NC(=O)CCCCCCCCCc1ccsc1 [Example 43, (R)-4-Dimethylamino-3-(10-thiophen-3-yl-decanoylamino)-butyric acid]"
22 nM,2340 nM,"CN(C)C[C@@H](CC(=O)O)NC(=O)CCCCCCCCCc1cccc(F)c1F [Example 42, (R)-3-[10-(2,3-Difluoro-phenyl)-decanoylamino]-4-dimethylamino-butyric acid]"
44 nM,6550 nM,"CN(C)C[C@@H](CC(=O)O)NC(=O)CCCCCCCCCc1ccc(C(F)(F)F)cc1 [Example 40, (R)-4-Dimethylamino-3-[10-(4-trifluoromethyl-phenyl)-decanoylamino]-butyric acid]"
143 nM,7020 nM,"CN(C)C[C@@H](CC(=O)O)NC(=O)CCCCCCCCCc1ccccc1 [Example 32, (R)-4-Dimethylamino-3-(10-phenyl-decanoylamino)-butyric acid]"
82 nM,,"CN(C)C[C@@H](CC(=O)O)NC(=O)CCCCCCCCOCCc1ccccc1 [Example 54, (R)-4-Dimethylamino-3-(9-phenethyloxy-nonanoylamino)-butyric acid]"
317 nM,> 10000 nM,"Cc1ccc(C)c(CCCCCCCCCC(=O)N[C@H](CC(=O)O)CN(C)C)c1 [Example 36, (R)-4-Dimethylamino-3-[10-(2,5-dimethyl-phenyl)-decanoylamino]-butyric acid]"
98 nM,7720 nM,"CN(C)C[C@@H](CC(=O)O)NC(=O)CCCCCCCCCc1cccc(F)c1 [Example 41, (R)-4-Dimethylamino-3-[10-(3-fluoro-phenyl)-decanoylamino]-butyric acid]"
58 nM,2410 nM,"CN(C)C[C@@H](CC(=O)O)NC(=O)CCCCCCCCOc1ccccc1 [Example 31, (R)-4-Dimethylamino-3-(9-phenoxy-nonanoylamino)-butyric acid]"
101 nM,,"CN(C)C[C@@H](CC(=O)O)NC(=O)CCCCCCCOCCOc1ccccc1 [Example 56, (R)-4-Dimethylamino-3-[8-(2-phenoxy-ethoxy)-octanoylamino]-butyric acid]"

# Source: US8344027B2, “4-dimethylaminobutyric acid derivatives” (Hoffmann-La Roche Inc., priority 2008, dated 2013)
